According to PMC8621373, “New Bioactive Fused Triazolothiadiazoles as Bcl-2-Targeted Anticancer Agents” (International Journal of Molecular Sciences, 2021):
Where “and” joins values, the source holds several entries; their conditions need not be identical. Equal entries are not always repeated. Entries after “also recorded” stand apart in the source; their conditions may differ.

What was measured:
MDA-MB-231 = assay: Cell viability by MTT assay, MDA-MB-231; format: cell-based; conditions: Homo sapiens, growth inhibition, 72 h, mean ± SEM
Protocol: (§1) Human breast cancer (MDA-MB-231) and cervical cancer (HeLa) cells, obtained from the ATCC (Manassas, VA, USA), were maintained as previously described. Cytotoxic effects of the tested compounds were assessed using MTT assay. Briefly, 4000 cells in 0.1 mL of medium (Life Technologies, Paisley, UK) were seeded and allowed to adhere for 24 h. The cells were treated with different concentrations of the tested compounds (from 0.00001 to 100 µM) and incubated for 72 h. In total, 20 µL of (5 mg/mL) MTT reagent (3-[4,5-dimethylthiazol-2-yl]-2,5-diphenyl tetrazolium bromide) in PBS was added and incubated for 4 h. The developed purple colour following the addition of DMSO was measured using a Multiskan Go machine (spectrophotometer) at 570 nm absorbance. Each concentration experiment was repeated independently 6 times to establish reproducibility. The percentage cell viability was calculated following the formula below, and IC50 values were obtained by using GraphPad Prism 5 software (San Diego, CA, USA). Cell viability (%) = [(OD test − OD blank) ÷ (OD negative control − OD blank)] × 100(1)

HeLa = assay: Cell viability by MTT assay, HeLa; format: cell-based; conditions: Homo sapiens, growth inhibition, 72 h, mean ± SEM
Protocol: as §1

KG1a = assay: Cell viability CellTiter-Blue assay, KG1a; format: cell-based, human; conditions: for IC50: Homo sapiens, KG-1a, growth inhibition, CellTiter-Blue, 24 h, mean ± SEM
Protocol: (§2) Human acute myeloid leukemia KG1a and acute T-cell lymphocytic leukemia Jurkat cells were cultured and maintained as previously described. For each experiment, 15,000 cells in 0.1 mL of medium were seeded into a solid-black fluorescence 96-well plate and incubated for 24 h. The cells were treated with different concentrations of the test compounds (from 0.00001 to 100 µM) over a 10-fold dilution series and incubated for 24 h. CellTiter-Blue® solution was added, followed by reading of the fluorescence according to our previous protocol. IC50 values were obtained by using GraphPad Prism 5 software (San Diego, CA, USA). For each concentration, six independent experiments were carried out.

Jurkat = assay: Cell viability CellTiter-Blue assay, Jurkat (Bcl-2-negative); format: cell-based, human; conditions: Bcl-2-negative cell line; for IC50: Homo sapiens, Jurkat, growth inhibition, CellTiter-Blue, 24 h, mean ± SEM
Protocol: as §2

His-tagged Bcl-2 protein = His-tagged Bcl-2 protein (Homo sapiens, UniProt P10415); assay: Competitive ELISA binding assay (interruption of Bcl-2-Bim interaction); conditions: for IC50: competition with Bim peptide, mean and SEM of three independent measurements
Sequence of His-tagged Bcl-2 protein (P10415 whole entry): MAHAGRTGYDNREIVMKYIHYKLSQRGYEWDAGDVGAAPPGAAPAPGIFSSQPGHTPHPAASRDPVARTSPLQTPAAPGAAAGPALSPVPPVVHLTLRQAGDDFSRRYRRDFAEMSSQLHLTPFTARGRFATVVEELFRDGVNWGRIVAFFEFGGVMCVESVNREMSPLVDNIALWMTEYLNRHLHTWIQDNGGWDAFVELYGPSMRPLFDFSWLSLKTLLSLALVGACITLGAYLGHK
Protocol: ELISA assay was performed to evaluate the ability of the compounds to compete with Bim protein and inhibit its interaction with Bcl-2 protein.. The addition of His-tagged Bcl-2 protein to a biotinylated Bim-coated plate according to our previously published protocol was followed by the addition of anti-His antibody (Abcam, Cambridge, UK) containing horseradish peroxidase enzyme (Qiagen, Crawley, UK), o-phenylenediamine (Sigma-Aldrich, UK) and hydrogen peroxide. The optical density was determined using a plate reader at wavelength of 450 nm. The experiments were carried out on three separate occasions, including both negative and positive controls. A plot of log nM concentration for each inhibitor against the percentage reduction in the Bim peptide was created, using non-linear regression curve analysis (GraphPad Prism 5, San Diego, CA, USA) and a software used to generate IC50 for the Bcl-2 inhibition activity.

[1] = tested on: Bcl-2-expressing human cancer cell lines (MDA-MB-231, HeLa and KG1a); assay: Growth inhibition of Bcl-2-expressing human cancer cell lines (summary); format: cell-based; conditions: span over MDA-MB-231, HeLa and KG1a, read-out: IC50 against Bcl-2-expressing cell lines
Protocol: as §1, with “Cell viability (%) = [(OD test − OD blank) ÷ (OD negative control − OD blank)] × 100(1)” left out
Human acute myeloid leukemia KG1a and acute T-cell lymphocytic leukemia Jurkat cells were cultured and maintained as previously described. For each experiment, 15,000 cells in 0.1 mL of medium were seeded into a solid-black fluorescence 96-well plate and incubated for 24 h. […] CellTiter-Blue® solution was added, followed by reading of the fluorescence according to our previous protocol. […]

| Compound | IC50 (MDA-MB-231) [µM] | IC50 (HeLa) [µM] | IC50 (KG1a) [µM] | IC50 (Jurkat) [µM] | melting point [°C] | activity against Jurkat cells (in words) (Jurkat) | IC50 (His-tagged Bcl-2 protein) | activity against KG1A cell line (in words) (KG1a; Acute Myeloid Leukemia cell line) | ELISA IC50 compared to (−)-gossypol positive control (His-tagged Bcl-2 protein; competitive Bcl-2 ELISA) | IC50 [1] [µM] |
| --- | --- | --- | --- | --- | --- | --- | --- | --- | --- | --- |
| Sc1nn2c(-c3c[nH]c4ccccc34)nnc2s1 [Compound 4, 3-(1H-Indol-3-yl)-[1,2,4]-triazolo[3,4-b]-[1,3,4]-thiadiazole-6-thiol] | 15 ± 0.6 | 18.2 ± 0.6 | 28.4 ± 0.43 | 10.3 ± 0.14 | 170 to 172 |  |  |  |  |  |
| Ic1ccc(-c2nn3c(-c4c[nH]c5ccccc45)nnc3s2)cc1 [Compound 5a, 3-[6-(4-Iodophenyl)-[1,2,4]-triazolo[3,4-b]-[1,3,4]-thiadiazol-3-yl]-1H-indole] | 2.72 ± 0.32 | 0.54 ± 0.02 | 1.66 ± 0.03 | 8.12 ± 0.16 | 183 to 185 |  |  |  |  |  |
| COc1ccc(-c2nn3c(-c4c[nH]c5ccccc45)nnc3s2)cc1 [Compound 5b, 3-[6-(4-Methoxyphenyl)-[1,2,4]-triazolo[3,4-b]-[1,3,4]-thiadiazol-3-yl]-1H-indole] | 1.7 ± 0.61 | 2.7 ± 0.9 | 3.14 ± 0.19 | > 100 | 192 to 194 | no activity | 1.14 ± 0.09 µM |  |  |  |
| Cc1ccc(-c2nn3c(-c4c[nH]c5ccccc45)nnc3s2)cc1 [Compound 5c, 3-(6-p-Tolyl-[1,2,4]-triazolo[3,4-b]-[1,3,4]-thiadiazol-3-yl)-1H-indole] | 16.3 ± 0.19 | 12.5 ± 0.23 | > 100 | > 100 | 201 to 203 | no activity |  | inactive |  |  |
| Brc1cccc(-c2nn3c(-c4c[nH]c5ccccc45)nnc3s2)c1 [Compound 5d, 3-[6-(3-Bromophenyl)-[1,2,4]-triazolo[3,4-b]-[1,3,4]-thiadiazol-3-yl]-1H-indole] | 4.9 ± 0.75 | 6.48 ± 0.67 | 20.2 ± 0.46 | 45.5 ± 0.4 | 179 to 182 |  |  |  |  |  |
| Brc1ccc(-c2nn3c(-c4c[nH]c5ccccc45)nnc3s2)cc1 [Compound 5e, 3-[6-(4-Bromophenyl)-[1,2,4]-triazolo[3,4-b]-[1,3,4]-thiadiazol-3-yl]-1H-indole] | 8.29 ± 0.9 | 9.8 ± 0.3 | 4.9 ± 0.73 | > 100 | 196 to 198 | no activity | 4.6 ± 0.19 µM |  |  |  |
| Clc1cccc(-c2nn3c(-c4c[nH]c5ccccc45)nnc3s2)c1 [Compound 5f, 3-[6-(3-Chlorophenyl)-[1,2,4]-triazolo[3,4-b]-[1,3,4]-thiadiazol-3-yl]-1H-indole] | 12.5 ± 0.66 | 3.6 ± 0.52 | 10.2 ± 0.65 | 20.5 ± 0.52 | 185 to 187 |  |  |  |  |  |
| Fc1cccc(-c2nn3c(-c4c[nH]c5ccccc45)nnc3s2)c1 [Compound 5g, 3-[6-(3-Fluorophenyl)-[1,2,4]-triazolo[3,4-b]-[1,3,4]-thiadiazol-3-yl]-1H-indole] | 7.5 ± 0.98 | 1.99 ± 0.28 | 8.6 ± 0.22 | 65.1 ± 1.25 | 183 to 185 |  |  |  |  |  |
| O=[N+]([O-])c1ccc(-c2nn3c(-c4c[nH]c5ccccc45)nnc3s2)cc1 [Compound 5h, 3-[6-(4-Nitrophenyl)-[1,2,4]-triazolo[3,4-b]-[1,3,4]-thiadiazol-3-yl]-1H-indole] | 3.16 ± 0.32 | 22.1 ± 0.45 | 34.5 ± 0.3 | 58.1 ± 1.3 | 196 to 198 |  |  |  |  |  |
| FC(F)(F)c1ccc(-c2nn3c(-c4c[nH]c5ccccc45)nnc3s2)cc1 [Compound 5i, 3-[6-(4-Trifluoromethylphenyl)-[1,2,4]-triazolo[3,4-b]-[1,3,4]-thiadiazol-3-yl]-1H-indole] | 4.22 ± 0.38 | 2.7 ± 0.19 | 2.19 ± 0.72 | > 100 | 194 to 196 | no activity | 1.74 ± 0.15 µM |  |  |  |
| O=[N+]([O-])c1cccc(-c2nn3c(-c4c[nH]c5ccccc45)nnc3s2)c1 [Compound 5j, 3-[6-(3-Nitrophenyl)-[1,2,4]-triazolo[3,4-b]-[1,3,4]-thiadiazol-3-yl]-1H-indole] | 3.6 ± 0.28 | 2.18 ± 0.73 | 6.82 ± 0.45 | 32.2 ± 1.2 |  |  |  |  |  |  |
| COc1ccc(-c2nn3c(-c4c[nH]c5ccccc45)nnc3s2)c(OC)c1 [Compound 5k, 3-[6-(2,4-Dimethoxyphenyl)-[1,2,4]-triazolo[3,4-b]-[1,3,4]-thiadiazol-3-yl]-1H-indole] | 0.7 ± 0.3 | 0.57 ± 0.08 | 0.31 ± 0.32 | > 100 | 178 to 180 | without inhibiting; also recorded: no activity | 0.32 µM and 0.3 µM and 0.34 µM and 0.36 µM |  | two-fold lower | 0.31 to 0.7 |
| COc1cc(OC)cc(-c2nn3c(-c4c[nH]c5ccccc45)nnc3s2)c1 [Compound 5l, 3-[6-(3,5-Dimethoxyphenyl)-[1,2,4]-triazolo[3,4-b]-[1,3,4]-thiadiazol-3-yl]-1H-indole] | 0.35 ± 0.29 | 1.42 ± 0.17 | 1.15 ± 0.27 | > 100 | 193 to 195 | no activity | 0.45 ± 0.03 µM |  |  |  |
| Cc1cc2c(C(C)C)c(O)c(O)c(C=O)c2c(O)c1-c1c(C)cc2c(C(C)C)c(O)c(O)c(C=O)c2c1O [Gossypol, gossypol, reference compound] | 5.5 ± 0.35 | 4.43 ± 0.54 | 4.2 ± 0.35 | 18.1 ± 1.3 |  |  |  |  |  |  |
